According to article PMC9221546, “New Phenylglycinamide Derivatives with Hybrid Structure as Candidates for New Broad-Spectrum Anticonvulsants” (Cells, 2022):

What was measured:
GABA transporter = GABA transporter binding (antagonist radioligand); details: 100 µM; rat cerebral cortex
Experimental: (§1) Binding/functional studies were carried out commercially in Eurofins Laboratories (Poitiers, France) and Eurofins Panlabs Discovery Services Taiwan, Ltd. (New Taipei City, Taiwan) using testing procedures that were reported previously (for details see Table S2).
(§2) Table S2. Radioligand binding and functional assays. […]
GABA transporter (antagonist radioligand) […]
(§3) TRPV1 (VR1) (h) (antagonist effect) […]
(§4) Assays were performed commercially in Eurofins Laboratories (Poitiers, France) or Eurofins Panlabs Discovery
(§5) Services Taiwan, Ltd. (New Taipei City, Taiwan). […]

[1] = Neurotoxicity, SH-SY5Y viability (MTS); format: cell-based; details: human, SH-SY5Y neuroblastoma cells, 10 and 50 µM, read-out: SH-SY5Y cell viability, % of the control
Experimental: Moreover, the dose-dependent increase in the cells viability was found during the repeated experiment in lower concentrations (Figure 8B). […] Thus, the observed influence of this chemical group for neuronal cells is worth further detailed exploration.
Figure 8 The effect of 53 and the cytostatic drug doxorubicin (DX) on neuroblastoma SH-SY5Y cell line viability after 72 h of incubation at 37 °C, 5% CO2 in the concentration range 1–100 µM (A) and 0.001–1 µM (B). The data were analyzed with one-way ANOVA, followed by Bonferroni’s Comparison Test (Graph Pad Prism 8.0.1 software, San Diego, CA, USA)): *** p < 0.001, **** p < 0.0001 vs. negative control (DMSO 1% in growth media).

N-type Ca^2+ channel = target: T1, N-type Ca^2+ channel (Rattus norvegicus, UniProt Q02294); test: N-type Ca2+ channel binding (antagonist radioligand); details: rat cerebral cortex, read-out: % Inhibition of Control Specific Binding, N-type Ca2+
T1 construct: Rat cerebral cortex; tissue Eurofins; host or cells: rat cerebral cortex
T1 sequence (Q02294 whole entry): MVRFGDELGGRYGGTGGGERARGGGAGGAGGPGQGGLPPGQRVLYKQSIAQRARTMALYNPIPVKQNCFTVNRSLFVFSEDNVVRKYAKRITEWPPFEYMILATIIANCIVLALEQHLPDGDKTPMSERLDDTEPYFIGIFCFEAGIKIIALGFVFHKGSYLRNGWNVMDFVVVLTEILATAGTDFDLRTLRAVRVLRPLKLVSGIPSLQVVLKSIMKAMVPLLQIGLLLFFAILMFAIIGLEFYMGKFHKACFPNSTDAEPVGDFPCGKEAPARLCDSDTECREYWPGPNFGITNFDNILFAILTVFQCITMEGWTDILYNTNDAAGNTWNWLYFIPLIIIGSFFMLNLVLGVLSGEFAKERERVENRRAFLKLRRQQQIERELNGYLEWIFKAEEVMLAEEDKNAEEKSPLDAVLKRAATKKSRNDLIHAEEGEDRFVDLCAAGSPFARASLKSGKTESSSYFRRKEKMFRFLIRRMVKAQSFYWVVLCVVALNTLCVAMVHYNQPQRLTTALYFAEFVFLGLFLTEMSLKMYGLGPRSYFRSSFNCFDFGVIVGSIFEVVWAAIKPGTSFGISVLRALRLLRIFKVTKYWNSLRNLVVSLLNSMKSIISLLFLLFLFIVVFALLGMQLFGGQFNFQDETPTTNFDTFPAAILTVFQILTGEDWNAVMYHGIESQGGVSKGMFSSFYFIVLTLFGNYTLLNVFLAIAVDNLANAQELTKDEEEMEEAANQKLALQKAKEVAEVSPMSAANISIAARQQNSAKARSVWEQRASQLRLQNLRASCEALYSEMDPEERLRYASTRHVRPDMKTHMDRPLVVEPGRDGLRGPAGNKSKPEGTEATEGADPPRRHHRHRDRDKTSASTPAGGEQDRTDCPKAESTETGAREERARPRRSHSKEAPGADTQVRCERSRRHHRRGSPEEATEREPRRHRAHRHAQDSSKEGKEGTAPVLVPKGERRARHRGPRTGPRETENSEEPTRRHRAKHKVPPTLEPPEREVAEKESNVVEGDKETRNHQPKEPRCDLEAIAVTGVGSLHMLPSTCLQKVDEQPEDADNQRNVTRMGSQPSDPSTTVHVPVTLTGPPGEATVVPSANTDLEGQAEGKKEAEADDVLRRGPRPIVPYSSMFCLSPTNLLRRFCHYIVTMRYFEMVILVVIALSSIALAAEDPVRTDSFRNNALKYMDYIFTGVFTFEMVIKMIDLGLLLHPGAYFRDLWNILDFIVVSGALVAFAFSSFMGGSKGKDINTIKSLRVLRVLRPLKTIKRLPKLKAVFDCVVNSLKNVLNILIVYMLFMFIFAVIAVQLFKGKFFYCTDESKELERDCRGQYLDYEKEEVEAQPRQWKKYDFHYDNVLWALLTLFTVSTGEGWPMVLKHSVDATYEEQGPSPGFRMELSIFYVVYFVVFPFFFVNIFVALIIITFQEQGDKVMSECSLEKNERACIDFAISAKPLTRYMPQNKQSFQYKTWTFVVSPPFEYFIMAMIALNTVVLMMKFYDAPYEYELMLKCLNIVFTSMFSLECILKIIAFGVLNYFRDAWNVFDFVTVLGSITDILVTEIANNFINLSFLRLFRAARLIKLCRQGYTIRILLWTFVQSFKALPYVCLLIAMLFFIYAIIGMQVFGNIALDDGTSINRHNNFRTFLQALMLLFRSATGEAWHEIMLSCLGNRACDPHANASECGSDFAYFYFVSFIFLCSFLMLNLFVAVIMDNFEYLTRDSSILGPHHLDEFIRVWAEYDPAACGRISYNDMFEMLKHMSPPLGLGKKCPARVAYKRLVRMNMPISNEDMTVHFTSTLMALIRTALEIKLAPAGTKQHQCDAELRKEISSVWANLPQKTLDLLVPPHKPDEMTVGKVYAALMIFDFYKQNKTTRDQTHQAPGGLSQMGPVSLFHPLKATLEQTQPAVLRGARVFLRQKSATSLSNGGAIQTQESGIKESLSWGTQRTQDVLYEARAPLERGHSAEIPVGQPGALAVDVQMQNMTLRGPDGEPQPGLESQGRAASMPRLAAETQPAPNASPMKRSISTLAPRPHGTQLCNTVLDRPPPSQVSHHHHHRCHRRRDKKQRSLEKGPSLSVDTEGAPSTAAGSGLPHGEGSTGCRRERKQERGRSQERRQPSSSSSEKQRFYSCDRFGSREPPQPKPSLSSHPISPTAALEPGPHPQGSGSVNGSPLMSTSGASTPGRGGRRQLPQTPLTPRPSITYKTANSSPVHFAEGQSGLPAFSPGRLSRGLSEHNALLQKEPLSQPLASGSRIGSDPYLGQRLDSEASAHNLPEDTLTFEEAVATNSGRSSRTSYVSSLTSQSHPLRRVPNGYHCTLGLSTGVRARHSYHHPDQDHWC
T1 sequence (P54287 whole entry partner): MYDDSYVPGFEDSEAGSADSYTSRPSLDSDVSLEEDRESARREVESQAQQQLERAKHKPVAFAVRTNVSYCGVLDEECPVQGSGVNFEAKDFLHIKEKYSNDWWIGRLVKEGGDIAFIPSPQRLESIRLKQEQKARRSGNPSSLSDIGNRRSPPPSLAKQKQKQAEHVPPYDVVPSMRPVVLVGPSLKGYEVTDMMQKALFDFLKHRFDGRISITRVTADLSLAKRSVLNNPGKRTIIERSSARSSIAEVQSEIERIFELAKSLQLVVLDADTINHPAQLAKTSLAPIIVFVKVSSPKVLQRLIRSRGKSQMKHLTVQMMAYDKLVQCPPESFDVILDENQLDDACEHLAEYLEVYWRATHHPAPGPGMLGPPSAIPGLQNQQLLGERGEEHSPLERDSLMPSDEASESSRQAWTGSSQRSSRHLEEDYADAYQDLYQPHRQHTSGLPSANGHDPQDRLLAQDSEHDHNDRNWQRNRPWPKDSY
T1 sequence (P54290 25-944 partner limits assumed): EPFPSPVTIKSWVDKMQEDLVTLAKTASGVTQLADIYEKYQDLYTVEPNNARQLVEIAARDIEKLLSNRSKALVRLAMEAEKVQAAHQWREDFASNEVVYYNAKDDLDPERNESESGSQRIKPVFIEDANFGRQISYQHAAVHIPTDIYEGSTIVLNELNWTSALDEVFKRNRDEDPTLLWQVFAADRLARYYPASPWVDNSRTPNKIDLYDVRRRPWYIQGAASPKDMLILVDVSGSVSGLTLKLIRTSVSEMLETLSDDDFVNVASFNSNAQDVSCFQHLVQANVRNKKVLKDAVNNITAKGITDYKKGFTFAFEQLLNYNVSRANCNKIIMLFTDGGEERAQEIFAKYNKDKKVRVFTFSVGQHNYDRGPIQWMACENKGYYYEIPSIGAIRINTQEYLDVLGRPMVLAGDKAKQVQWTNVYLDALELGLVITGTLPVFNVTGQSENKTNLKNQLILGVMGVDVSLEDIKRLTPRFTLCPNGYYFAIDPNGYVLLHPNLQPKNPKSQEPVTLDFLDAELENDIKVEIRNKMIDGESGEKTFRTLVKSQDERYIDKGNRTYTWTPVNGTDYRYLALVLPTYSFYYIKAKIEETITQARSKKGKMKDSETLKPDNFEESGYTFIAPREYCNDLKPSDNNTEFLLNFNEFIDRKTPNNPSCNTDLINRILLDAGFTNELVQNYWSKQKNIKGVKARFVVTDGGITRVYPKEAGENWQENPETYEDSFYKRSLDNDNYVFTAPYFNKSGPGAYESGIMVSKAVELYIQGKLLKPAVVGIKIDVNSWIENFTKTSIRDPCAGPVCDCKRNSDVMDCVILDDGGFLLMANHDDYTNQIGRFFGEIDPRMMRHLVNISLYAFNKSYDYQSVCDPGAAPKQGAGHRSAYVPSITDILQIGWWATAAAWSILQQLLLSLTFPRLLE
T1 sequence (P54290 945-1091 partner limits assumed): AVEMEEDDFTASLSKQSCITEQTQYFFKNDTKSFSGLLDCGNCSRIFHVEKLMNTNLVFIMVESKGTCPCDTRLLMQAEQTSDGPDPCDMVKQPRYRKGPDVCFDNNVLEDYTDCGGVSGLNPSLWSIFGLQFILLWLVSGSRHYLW
Experimental: as §1, §2
N-type Ca2+ (antagonist radioligand) […]
as §3, §4, §5

GABAA ion channel = GABAA ion channel [3H]GABA binding (agonist radioligand); details: 100 µM; rat cerebral cortex
Experimental: as §1, §2
GABAA ion channel [3H]GABA (agonist radioligand) […]
as §3, §4, §5

hERG = target: T2, hERG (Homo sapiens, UniProt Q12809); test: Potassium channel (hERG) binding; details: human recombinant HEK-293 cells expressing hERG, human recombinant HEK-293 cell, read-out: % Inhibition of Control Specific Binding, hERG
T2 construct: Eurofins
T2 sequence (Q12809 whole entry): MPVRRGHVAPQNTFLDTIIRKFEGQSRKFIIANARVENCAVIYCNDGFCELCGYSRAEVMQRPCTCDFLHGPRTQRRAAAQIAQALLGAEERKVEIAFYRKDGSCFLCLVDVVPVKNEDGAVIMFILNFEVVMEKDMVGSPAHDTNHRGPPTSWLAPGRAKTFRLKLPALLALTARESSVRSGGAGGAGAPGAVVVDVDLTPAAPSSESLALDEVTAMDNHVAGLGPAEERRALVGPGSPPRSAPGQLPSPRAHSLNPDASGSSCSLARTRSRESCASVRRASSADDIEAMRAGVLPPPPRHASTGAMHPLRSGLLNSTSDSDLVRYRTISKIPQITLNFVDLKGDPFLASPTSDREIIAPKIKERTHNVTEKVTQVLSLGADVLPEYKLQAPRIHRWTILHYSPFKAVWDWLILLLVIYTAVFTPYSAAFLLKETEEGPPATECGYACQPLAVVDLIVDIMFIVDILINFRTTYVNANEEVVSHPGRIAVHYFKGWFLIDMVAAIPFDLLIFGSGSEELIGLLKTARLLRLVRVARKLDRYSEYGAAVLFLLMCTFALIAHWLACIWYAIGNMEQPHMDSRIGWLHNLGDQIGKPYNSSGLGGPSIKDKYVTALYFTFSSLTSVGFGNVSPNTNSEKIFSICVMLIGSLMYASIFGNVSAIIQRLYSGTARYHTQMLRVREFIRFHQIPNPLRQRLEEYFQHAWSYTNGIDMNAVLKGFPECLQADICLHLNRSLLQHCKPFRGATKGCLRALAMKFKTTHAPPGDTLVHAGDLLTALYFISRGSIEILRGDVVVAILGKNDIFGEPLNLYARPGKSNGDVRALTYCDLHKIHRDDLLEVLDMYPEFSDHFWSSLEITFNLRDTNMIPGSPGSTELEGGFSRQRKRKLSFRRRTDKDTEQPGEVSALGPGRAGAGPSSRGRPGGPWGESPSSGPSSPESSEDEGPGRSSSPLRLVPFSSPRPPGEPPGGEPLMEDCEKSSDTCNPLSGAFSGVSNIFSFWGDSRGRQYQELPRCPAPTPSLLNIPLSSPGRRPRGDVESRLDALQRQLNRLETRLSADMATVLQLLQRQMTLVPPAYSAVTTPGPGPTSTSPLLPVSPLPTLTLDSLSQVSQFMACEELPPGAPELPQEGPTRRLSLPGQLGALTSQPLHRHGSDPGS
Experimental: as §1, §2
Potassium channel (hERG)
as §3, §4, §5

NMDA receptor = test: NMDA binding (antagonist radioligand); details: 100 µM; rat cerebral cortex
Experimental: as §1, §2
NMDA (antagonist radioligand) […]
as §3, §4, §5

[2] = tested on: fast voltage-gated sodium channels in rat prefrontal cortex pyramidal neurons; test: Patch-clamp of fast sodium currents; format: cell-based; details: control = 1.0, n = 7
Experimental: The methodology of slice preparation, slice preincubation, and patch-clamp technique was the same as in our previous studies. Compound 53 was tested at a concentration of 10 µM.
Thus, we determined the influence of 53 on fast voltage-gated sodium channels in rat prefrontal cortex pyramidal neurons (at a concentration of 10 μM) using the patch-clamp technique. Maximal currents were evoked by rectangular voltage steps to 0 mV. […] The effect was not strong, but statistically significant (1.0 in the control and 0.83 ± 0.03 after the application of 53, p < 0.01). It was possible to obtain partial wash-out (0.86 ± 0.03 and the current were normalized to the control level, n = 7, Figure 5).
Figure 5 (A) The influence of compound 53 on sodium current is shown on an example neuron. The current was evoked once every ten seconds by a rectangular voltage-step. […] (B) Example of the sodium current recordings in the control (black trace), after the application of the tested compound (blue trace), and after wash-out (red trace). (C) The averaged normalized maximal current amplitudes in the control, in the presence of 53, and after wash-out. The data were analyzed with a nonparametric repeated measures ANOVA followed by Dunn’s post hoc test. * p < 0.01 (n = 7).

mice = test: Capsaicin-induced hypothermia model / core body temperature; format: in vivo; details: i.p. 15 min before capsaicin 5 mg/kg; compound 60 50 mg/kg, BCTC 20 mg/kg
Experimental: Capsaicin was dissolved in 1% DMSO and administered at a dose of 5 mg/kg at a time point 0 min. Compound 60 and BCTC (positive control) were suspended in 1% Tween 80 and administered 15 min before capsaicin (at time point -15 min). All compounds were injected i.p. at a constant volume of 10 mL/kg. Control animals received the respective vehicles (1% DMSO or 1% Tween 80). Changes in the rectal temperature were measured using an electronic thermometer (ThermoWorks, Alpine, UT, USA) by inserting the rectal probe to a depth of ~2 cm into the rectum of the mouse. The measurements were taken at −15, 0, 15, 30, 60, 90, 120, and 180 min. The differences in the rectal temperature from baseline (time -15 min for groups receiving compound 60 and BCTC in combination with vehicle or time 0 min for groups receiving vehicle and capsaicin or compound 60 and BCTC in combination with capsaicin) to the respective time point ΔT (°C) were then calculated and analyzed. The results are shown in Figure 4 (see Section 3 Results and Discussion).
Figure 4 Effects of compound 60 and BCTC alone (A) or in combination with capsaicin (B) on the core body temperature in mice. Capsaicin (CPS) was injected at 0 min, as indicated by the arrow. Compound 60 or BCTC were administered 15 min prior to CPS injection. The temperature was measured at −15, 0, 15, 30, 60, 90, 120, and 180 min. Since body temperature returned to control values 60 min after CPS injection, subsequent measurements are not shown. Control animals received vehicles (1% DMSO or 1% Tween 80). All the compounds were administered i.p. Each experimental group consisted of seven to eight animals. The data are presented as the mean differences (ΔT) in rectal temperature from baseline (time −15 for A and time 0 for B) to the respective time point. The data were analyzed with one-way ANOVA followed by Tukey’s post hoc test. ** p < 0.01, *** p < 0.001, **** p < 0.0001 vs. the control group; ^#### p < 0.0001 vs. the CPS-treated group.

Row | % Inhibition of Control Specific Binding, GABA transporter (GABA transporter) | inhibition at 100 µM (N-type Ca^2+ channel) | % Inhibition of Control Specific Binding, GABAA ion channel (GABAA ion channel) | % Inhibition of Control Specific Binding, NMDA (NMDA receptor) | melting point | Structure (SMILES) | viability at 72 h [1] | inhibition at 100 µM (hERG) | normalized maximal amplitude of sodium current after application ([2]; 10 μM) | normalized maximal amplitude of sodium current after wash-out ([2]; after 10 μM) | effect on capsaicin-induced hypothermia (co-administration) (mice)
1 | 2.8 (100) % | 1.5% | −1.1 (100) % | 9.0 (100) % | 131.8 to 132.5 °C | CC(=O)NC(C(=O)N1CCN(c2cccc(C(F)(F)F)c2)CC1)c1ccccc1 (stereo not shown) [Compound 53, N-(2-oxo-1-phenyl-2-(4-(3-(trifluoromethyl)phenyl)piperazin-1-yl)ethyl)acetamide] | ≤ 140% | 24% | 0.83 ± 0.03 | 0.86 ± 0.03 | –
2 | – | – | – | – | – | CC(=O)NC(C(=O)N1CCN(c2cccc(OC(F)(F)F)c2)CC1)c1ccccc1 (stereo not shown) [Compound 60, N-(2-oxo-1-phenyl-2-(4-(3-(trifluoromethoxy)phenyl)piperazin-1-yl)ethyl)acetamide] | – | – | – | – | did not affect the capsaicin-induced hypothermia
